assay: Toxicity in mouse erythrocytes assessed as hemolytic activity; format: cell-based, Erythrocyte

Q: Which HC50 does the source give for `CC(C)CCC[C@@H](COS(=O)(=O)O)[C@H]1CC[C@H]2[C@@H]3CC[C@H]4C[C@H](OS(=O)(=O)O)CC[C@]4(C)[C@H]3CC[C@]12C` here?
A: The HC50 was 10 µM.

Q: For `CC(C)CCC[C@@H](COS(=O)(=O)O)[C@H]1CC[C@H]2[C@@H]3CC=C4[C@@H](O)[C@H](OS(=O)(=O)O)CC[C@]4(C)[C@H]3CC[C@]12C`, which HC50 is on record?
A: The HC50 was 80 µM.

Q: With `CC(C)CCC[C@@H](COS(=O)(=O)O)[C@H]1CC[C@H]2[C@@H]3CC[C@H]4[C@@H](O)[C@H](OS(=O)(=O)O)CC[C@]4(C)[C@H]3CC[C@]12C` as the compound, how does the HC50 read?
A: Its HC50 is 45 µM.

Q: For `CC(C)CCC[C@@H](COS(=O)(=O)O)[C@H]1CC[C@H]2[C@@H]3CC[C@H]4C[C@H](OS(=O)(=O)O)CC[C@]4(C)[C@H]3CC[C@]12C.NCCc1ccc(O)cc1.NCCc1ccc(O)cc1`, which HC50 is on record?
A: The HC50 was 18 µM.

Q: For `CC(C)CCC[C@@H](COS(=O)(=O)O)[C@H]1CC[C@H]2[C@@H]3CC=C4C[C@H](OS(=O)(=O)O)CC[C@]4(C)[C@H]3CC[C@]12C.NCCc1ccc(O)cc1`, which HC50 is on record?
A: The HC50 was 33 µM.
